A short description of assay [1]: Selectivity index, ratio of IC50 for mouse NIH3T3 cells to IC50 for human MGC803 cells. Format: functional.
Assay [2] in a line: Selectivity index, ratio of IC50 for mouse NIH3T3 cells to IC50 for human Bcap37 cells. It is filed as functional.
A short description of assay [3]: Selectivity index, ratio of IC50 for mouse NIH3T3 cells to IC50 for human PC3 cells. It is filed as functional.
Assay [4] deals with Bcap37. Briefly: Cytotoxicity against human Bcap37 cells after 72 hrs by MTT assay. The conditions noted are these: Bcap37, 72 h. (In general: Tetrazolium assays rely on reduction of a dye to a coloured formazan, in cell work by metabolically active cells.)
For assay [5], the system named is MGC-803. Put plainly: cells. The conditions noted are these: Homo sapiens, MGC-803, 72 h.
Description: Cytotoxicity against human MGC803 cells after 72 hrs by MTT assay
The subject of assay [6] is PC-3. Put plainly: cells. The conditions noted are these: Homo sapiens, PC-3, 72 h.
Description: Cytotoxicity against human PC3 cells after 72 hrs by MTT assay
Assay [7] relates to MGC-803. Briefly: Induction of apoptosis in human MGC803 cells assessed as early and late apoptosis ratio at 1 to 10 uM by annxinV-FITC/propidium iodide staining-based flow cytometry. It is filed as functional, cell-based. The conditions noted are these: TDE = time-dependent effect. In general terms: Flow cytometry measures light scatter and fluorescence of single cells or particles in a stream.

The subject of assay [8] is MGC-803. Briefly: Induction of apoptosis in human MGC803 cells assessed as early and late apoptosis ratio at 10 uM after 24 hrs by annxinV-FITC/propidium iodide staining-based flow cytometry. It is filed as functional.
Assay [9] deals with MGC-803. Briefly: Induction of apoptosis in human MGC803 cells assessed as early and late apoptosis ratio at 5 uM after 24 hrs by annxinV-FITC/propidium iodide staining-based flow cytometry. It is filed as functional.
The test system of assay [10] is MGC-803. Put plainly: Induction of apoptosis in human MGC803 cells assessed as early and late apoptosis ratio at 1 uM after 24 hrs by annxinV-FITC/propidium iodide staining-based flow cytometry. It is filed as functional.
Assay [11] deals with MGC-803. Put plainly: Induction of apoptosis in human MGC803 cells assessed as early and late apoptosis ratio at 10 uM after 12 hrs by annxinV-FITC/propidium iodide staining-based flow cytometry. It is filed as functional.
In assay [12] the test system is MGC-803. Briefly: Induction of apoptosis in human MGC803 cells assessed as early and late apoptosis ratio at 5 uM after 12 hrs by annxinV-FITC/propidium iodide staining-based flow cytometry. It is filed as functional.
The test system of assay [13] is MGC-803. Briefly: Induction of apoptosis in human MGC803 cells assessed as early and late apoptosis ratio at 1 uM after 12 hrs by annxinV-FITC/propidium iodide staining-based flow cytometry. It is filed as functional.
Assay [14] has as its system MGC-803. Put plainly: Induction of apoptosis in human MGC803 cells assessed as early and late apoptosis ratio at 10 uM after 6 hrs by annxinV-FITC/propidium iodide staining-based flow cytometry. It is filed as functional.
Assay [15] relates to MGC-803. Put plainly: Induction of apoptosis in human MGC803 cells assessed as early and late apoptosis ratio at 5 uM after 6 hrs by annxinV-FITC/propidium iodide staining-based flow cytometry. Format: functional.
For assay [16], the system named is MGC-803. Put plainly: Induction of apoptosis in human MGC803 cells assessed as early and late apoptosis ratio at 1 uM after 6 hrs by annxinV-FITC/propidium iodide staining-based flow cytometry. It is filed as functional.
The subject of assay [17] is MGC-803. Put plainly: Induction of apoptosis in human MGC803 cells assessed as DNA fragmentation at 5 uM after 12 hrs by EB staining-based agarose gel electrophoresis relative to control. Format: functional, cell-based.
For assay [18], the system named is MGC-803. Put plainly: Induction of apoptosis in human MGC803 cells assessed as chromatin condensation at 5 uM after 12 hrs by Hoechst 33258 staining-based fluorescence microscopic analysis. It is filed as functional, cell-based.
Assay [19] has as its system MGC-803. Put plainly: Induction of apoptosis in human MGC803 cells assessed as pyknotic nuclei at 5 uM after 12 hrs by Hoechst 33258 staining-based fluorescence microscopic analysis. Format: functional, cell-based.
Assay [20] has as its system Bcap37. Put plainly: Induction of apoptosis in human Bcap37 cells assessed as chromatin condensation at 5 uM after 12 hrs by Hoechst 33258 staining-based fluorescence microscopic analysis. Format: functional, cell-based.
Assay [21] concerns Bcap37. Briefly: Induction of apoptosis in human Bcap37 cells assessed as pyknotic nuclei at 5 uM after 12 hrs by Hoechst 33258 staining-based fluorescence microscopic analysis. Format: functional, cell-based.
Assay [22] concerns PC-3. Put plainly: Induction of apoptosis in human PC3 cells assessed as chromatin condensation at 5 uM after 12 hrs by Hoechst 33258 staining-based fluorescence microscopic analysis. It is filed as functional, cell-based.
In assay [23] the test system is PC-3. Briefly: Induction of apoptosis in human PC3 cells assessed as pyknotic nuclei at 5 uM after 12 hrs by Hoechst 33258 staining-based fluorescence microscopic analysis. It is filed as functional, cell-based.
For assay [24], the system named is MGC-803. Briefly: Induction of apoptosis in human MGC803 cells assessed as early and late apoptic cells at 5 uM after 12 hrs by AO/EB staining-based fluorescence microscopic analysis. It is filed as functional, cell-based.
Assay [25] concerns MGC-803. Put plainly: Induction of apoptosis in human MGC803 cells assessed as necrotic cells at 5 uM after 12 hrs by AO/EB staining-based fluorescence microscopic analysis. Format: functional, cell-based.
In assay [26] the test system is Bcap37. Briefly: Induction of apoptosis in human Bcap37 cells assessed as necrotic cells at 5 uM after 12 hrs by AO/EB staining-based fluorescence microscopic analysis. It is filed as functional, cell-based.
The test system of assay [27] is Bcap37. Put plainly: Induction of apoptosis in human Bcap37 cells assessed as early and late apoptic cells at 5 uM after 12 hrs by AO/EB staining-based fluorescence microscopic analysis. Format: functional, cell-based.
Assay [28] concerns PC-3. Put plainly: Induction of apoptosis in human PC3 cells assessed as necrotic cells at 5 uM after 12 hrs by AO/EB staining-based fluorescence microscopic analysis. Format: functional, cell-based.
Assay [29] concerns PC-3. Briefly: Induction of apoptosis in human PC3 cells assessed as early and late apoptic cells at 5 uM after 12 hrs by AO/EB staining-based fluorescence microscopic analysis. It is filed as functional, cell-based.
Assay [30] relates to MGC-803. Put plainly: Induction of apoptosis in human MGC803 cells assessed as DNA fragmentation at 10 uM after 12 hrs by EB staining-based agarose gel electrophoresis relative to control. Format: functional, cell-based.
Assay [31] concerns MGC-803. Put plainly: Induction of apoptosis in human MGC803 cells assessed as chromatin condensation at 10 uM after 12 hrs by Hoechst 33258 staining-based fluorescence microscopic analysis. Format: functional, cell-based.
In assay [32] the test system is MGC-803. Briefly: Induction of apoptosis in human MGC803 cells assessed as smaller nuclei at 10 uM after 12 hrs by Hoechst 33258 staining-based fluorescence microscopic analysis. It is filed as functional, cell-based.
For assay [33], the system named is Bcap37. Put plainly: Induction of apoptosis in human Bcap37 cells assessed as chromatin condensation at 10 uM after 12 hrs by Hoechst 33258 staining-based fluorescence microscopic analysis. Format: functional, cell-based.
Assay [34] concerns Bcap37. Briefly: Induction of apoptosis in human Bcap37 cells assessed as smaller nuclei at 10 uM after 12 hrs by Hoechst 33258 staining-based fluorescence microscopic analysis. Format: functional, cell-based.
The test system of assay [35] is PC-3. Put plainly: Induction of apoptosis in human PC3 cells assessed as chromatin condensation at 10 uM after 12 hrs by Hoechst 33258 staining-based fluorescence microscopic analysis. Format: functional, cell-based.
For assay [36], the system named is PC-3. Put plainly: Induction of apoptosis in human PC3 cells assessed as smaller nuclei at 10 uM after 12 hrs by Hoechst 33258 staining-based fluorescence microscopic analysis. Format: functional, cell-based.

For orientation: IC50 means the concentration that gives 50% inhibition. High values mean lower potency, low ones higher potency.

Structures are written as SMILES. The source made the active and inactive calls. The calls are words filed in the database; no cut-off is given here.

As for `COc1ccc(OC)c(/C=C/C(=O)/C=C/c2ccc(Oc3ncnc4ccccc34)cc2)c1`, the “Ratio IC50” value is reported as 6.57 in [1], less than 2 in assay [2] and 4.46 in assay [3]. Moreover, the 50% inhibitory concentration (IC50) in assay [4] was 7.81 µM; in assay [5] it was 2.01 µM; in [6] it was 2.96 µM.
As for `O=C(/C=C/c1ccc(Oc2ncnc3ccccc23)cc1)/C=C/c1cc([N+](=O)[O-])ccc1Cl`, the Activity result in [7] was “tde”; in [8] it was 27.1%; in assay [9], 8.9%; in [10], 5.3%; in [11], 10.5%; in assay [12] it was 6.2%. The Activity in [13] is 2.8%; in assay [14], 6.4%; in [15] it was 4.1%; in assay [16] it was 2.4%. The outcome in assay [17], in assay [18], in assay [19], in assay [20], in assay [21] and in assay [22] was Active. Besides, the result in assay [23], in assay [24], in assay [25], in [26], in [27] and in assay [28] was Active. The outcome in assay [29] was Active. Moreover, the results for the “Ratio IC50” value in [1], in assay [2] and in assay [3] were more than 8, 5.72 and more than 8, respectively. The 50% inhibitory concentration (IC50) in assay [4] came out at 3.9 µM; in assay [5], 0.86 µM; in assay [6], 1.34 µM.
Take `Cc1nn(C)c(Cl)c1/C=C/C(=O)/C=C/c1ccc(Oc2ncnc3ccccc23)cc1`: the values for the IC50 in assay [4], in assay [5] and in [6] were 18.9 µM, 9.31 µM and 11.5 µM, respectively.
The matching figures for `O=C(/C=C/c1ccc(Cl)cc1)/C=C/c1ccc(Oc2ncnc3ccccc23)cc1`: 11.3 µM, 4.84 µM and 7.35 µM.
The matching figures for `Cc1cccc2c(Oc3ccc(/C=C/C(=O)/C=C/c4ccc(Cl)cc4Cl)cc3)ncnc12`: 32.8 µM, 5.13 µM and 15.2 µM.
Consider `COc1ccccc1/C=C/C(=O)/C=C/c1ccc(Oc2ncnc3c(C)cccc23)cc1`, for which the IC50 in assay [4] turned out to be 9.26 µM; in [5] it was 3.76 µM; in assay [6] it was 5.17 µM.
The matching figures for `O=C(/C=C/c1ccc(F)cc1)/C=C/c1ccc(Oc2ncnc3ccccc23)cc1`: 8.53 µM, 3.84 µM and 5.62 µM.
Turning to `Cc1cccc2c(Oc3ccc(/C=C/C(=O)/C=C/c4ccc(F)cc4)cc3)ncnc12`, the IC50 turned out to be 9.25 µM in assay [4], 4.36 µM in assay [5] and 7.36 µM in assay [6].
For `Cc1cccc2c(Oc3ccc(/C=C/C(=O)/C=C/c4cc([N+](=O)[O-])ccc4Cl)cc3)ncnc12`, the figures for the IC50 in assay [4], in [5] and in assay [6] were 7.89 µM, 1.86 µM and 2.79 µM, respectively.
With `CC[C@@]1(O)C(=O)OCc2c1cc1n(c2=O)Cc2cc3cc(O)ccc3nc2-1` [HYDROXYCAMPTOTHECIN], the Activity in [8] came to 24.5%; in assay [9] it was 7.6%; in assay [10] it was 4.7%; in [11] it was 8.6%; in assay [12] it was 5.8%; in assay [13] it was 2%. The Activity in assay [14] was 3%; in [15] it was 1.8%; in assay [16] it was 1.2%. For the same molecule, the outcome in assay [30], in [31], in assay [32], in assay [33], in assay [34] and in assay [35] was Active. In [36], the outcome was Active.
On to `COc1cccc2c1C(=O)c1c(O)c3c(c(O)c1C2=O)C[C@@](O)(C(=O)CO)C[C@@H]3O[C@H]1C[C@H](N)[C@H](O)[C@H](C)O1` [DOXORUBICIN], for which the “Ratio IC50” value in assay [1], in assay [2] and in assay [3] was less than 2 each time. Further, the figures for the IC50 in assay [4], in assay [5] and in assay [6] were 1.9 µM, 0.74 µM and 1.01 µM, respectively.
Consider `CC(=O)/C=C/c1ccc(Oc2ncnc3c(C)cccc23)cc1`, for which the IC50 came to 30.3 µM in assay [4], 19.9 µM in assay [5] and 25.8 µM in [6].
The corresponding values for `CC(=O)/C=C/c1ccc(Oc2ncnc3ccccc23)cc1` are 28.9 µM, 18.4 µM and 21.3 µM.
Consider `Cc1nn(C)c(Cl)c1/C=C/C(=O)/C=C/c1ccc(Oc2ncnc3c(C)cccc23)cc1`, for which the IC50 in [4] was 21.3 µM; in assay [5], 11.6 µM; in assay [6] it was 16.4 µM.
The matching figures for `O=C(/C=C/c1ccc(Oc2ncnc3ccccc23)cc1)/C=C/c1ccc(Cl)cc1Cl`: 10.8 µM, 2.77 µM and 4.57 µM.
With `COc1ccc(OC)c(/C=C/C(=O)/C=C/c2ccc(Oc3ncnc4c(C)cccc34)cc2)c1`, the IC50 in assay [4] was 8.17 µM; in [5] it was 2.32 µM; in [6] it was 4.71 µM.
The matching figures for `Cc1cccc2c(Oc3ccc(/C=C/C(=O)/C=C/c4ccc(Cl)cc4)cc3)ncnc12`: 12.3 µM, 8.1 µM and 8.79 µM.
`COc1ccccc1/C=C/C(=O)/C=C/c1ccc(Oc2ncnc3ccccc23)cc1`: the “Ratio IC50” value is 6.13 in assay [1], less than 2 in [2] and 3.4 in assay [3]. Also, the half-inhibitory concentration (IC50) in [4] is 7.82 µM; in assay [5] it was 2.03 µM; in assay [6] it was 3.66 µM.

These data come from ChEMBL document CHEMBL2429743, “Synthesis and antitumor properties of novel curcumin analogs” (Med Chem Res, 2013).
